Results taken from patent US9694060B2, “Peptide vaccines based on the EGFRvIII sequence for the treatment of tumors” (The Board of Trustees of the Leland Stanford Junior …, priority 2012, dated 2017).
No end group written: not given here.

System: HC2 20d2/c cells, an NIH-3T3 cell line engineered to overexpress EGFRvIII
Assay: tumor regression / survival experiments in mice bearing EGFRvIII-overexpressing tumors
Assay type: in vivo, NIH Swiss mice
Conditions: for survival / effectiveness compared with Peptide G:KLH: Table 1 experiments; for survival / effectiveness compared with Peptide G:KLH / percent survival compared with Peptide G:KLH: in words; for percent survival compared with Peptide G:KLH: overall survival data (Table 2)
Procedure: The conjugated peptide vaccines were tested in tumor regression experiments and survival results were compared among animals treating with one of the conjugated peptide vaccines or KLH only.
Additional experiments were performed repeating the experiments described above.
For all experiments, the peptides were synthesized with the sequence as indicated with the cysteine at the carboxy terminus added for the purposes of conjugation. Peptides were then conjugated at a 1:1 w/w ratio to maleimide activated Keyhole Limpet Hemocyanin (KLH) for 24 hours. Following conjugation, the peptide:KLH conjugate was dialyzed against PBS to remove unconjugated peptide
NIH Swiss mice were inoculated subcutaneously in the right hand flank with 2×10^6 HC2 20d2/c cells, an NIH-3T3 cell line engineered to overexpress EGFRvIII. This cell line has been previously used to study anti-tumor responses to SEQ ID NO:2 conjugated to KLH (Moscatello et al., Cancer Res. 57:1419). On the 7th day following inoculation, mice were immunized with 100 μg of conjugated peptide in 100 μl of PBS emulsified with 100 μl of Freund's complete adjuvant. On the 14th day, mice were immunized with 100 μg of peptide in 100 μl of PBS emulsified with 100 μl of Freund's incomplete adjuvant.

[1] = Table 1, first experiments, s.c. tumor, immunized day 7 and day 14 with 100 μg conjugated peptide in Freund's adjuvant
[2] = Table 2, overall survival data compiled after additional repeat experiments, immunized day 7 and day 14 with 100 μg

Row | Substance | Survival [1] [%] | survival / effectiveness compared with Peptide G:KLH | Survival [2] [%] | percent survival compared with Peptide G:KLH
1 | LEEKKANYVVTDHC:KLH (also: conjugated to KLH, site not given here) [Peptide A: KLH] | 90 | better survival rates | 80 | higher percent survival
2 | LEEKKVNYVVTDHC:KLH (also: conjugated to KLH, site not given here) [Peptide V: KLH] | 70 | better survival rates | 70 | higher percent survival
3 | Keyhole Limpet Hemocyanin [KLH only, reference compound] | 47 |  | 32 | 
4 | LEEKKPNYVVTDHC:KLH (also: conjugated to KLH, site not given here) [Peptide P: KLH] | 70 | better survival rates | 65 | higher percent survival
